Experimental data published in US9521845B2, “Beta-lactones as antibacterial agents” (LUDWIG-MAXIMILIANS-UNIVERSITÄT-MÜNCHEN, priority 2008, dated 2016).

How the values were obtained:
[1] = test system: haemolysis abilities of Staphylococcus aureus; test: Blood agar plate-based haemolysis assay; assay type: cell-based
Procedure: FIG. 3: Blood agar plate-based assay illustrating that beta-lactones have an effect on the haemolysis abilities of Staphylococcus aureus. 2.5 μL of S. aureus LB dilution (OD600=0.13 corresponding to approx. 1×10^8 cfu/ml) and 2.5 μL DMSO/lactone in DMSO were applied on Whatman Cards placed on 5% sheep blood agar plates (Heipha Diagnostika, Eppelheim, Germany) and incubated at 37° C. over night. A) Direct comparison of beta-lactones as shown in FIG. 2 at a total amount of 250 nmol applied on Whatman Cards. B) Dose down with beta-lactone compounds D3, E2 and G2 at applied concentrations of 100 mM, 50 mM, 25 mM, 12.5 mM, 6.25 mM and 0 mM (corresponding to total amounts of 250 nmol, 125 nmol, 62.5 nmol, 31.3 nmol, 15.6 nmol and 0 nmol, respectively).
2.5 μl, of S. aureus LB dilution (OD600 0.13 corresponding to approx. 1×10^8 cfu/ml) and 2.5 μL DMSO/beta-lactone in DMSO were applied on Whatman Cards placed on 5% sheep blood agar plates (Heipha Diagnostika, Eppelheim, Germany) and incubated at 37° C. over night. FIG. 3A directly compares the β-lactones at a total amount of 250 nmol applied on Whatman Cards. […] For D3 almost no haemolysis is observed down to a total amount of 125 nmol lactone. FIG. 5 illustrates the haemolytic activity of beta-lactone compounds D3, E2 and G2 plotted against the total amount of the respective beta-lactone, whereby a haemolysis zone size of 1.5 mm was set as 100% haemolytic activity. The data shown in FIG. 5 has been corroborated by further experimental testing.
Haemolysis was tested on blood agar plates (5% sheep blood; Heipha Diagnostika, Eppelheim, Germany). Sterile circles of Whatman cards (No. Y) with 5 mm diameter were placed on agar plates and inoculated with 2.5 μL of the corresponding beta-lactone/DMSO and 2.5 μL stationary phase culture of S. aureus diluted to […]. The plates were incubated over night at 37° C. and the diameters of the zones around the bacterial colonies were precisely measured using a vernier caliper.

ClpP = target: T1, ClpP (Staphylococcus aureus, UniProt Q2G036); test: In vivo labelling of the proteome of S. aureus; assay type: cell-based
T1 construct: endogenous in cells
T1 sequence (Q2G036 1-195): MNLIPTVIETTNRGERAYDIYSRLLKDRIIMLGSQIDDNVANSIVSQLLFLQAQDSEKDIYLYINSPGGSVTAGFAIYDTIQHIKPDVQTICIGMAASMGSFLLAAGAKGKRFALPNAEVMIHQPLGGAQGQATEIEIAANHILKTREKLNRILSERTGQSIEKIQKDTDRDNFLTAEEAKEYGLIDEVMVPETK
Procedure: FIG. 16: In vivo labelling of the proteome of S. aureus with beta-lactones. Probes were applied at a certain concentration to approx. 2×10^9 cfu of stationary phase S. aureus in 100 μL PBS and incubated for 2 h. Excess probe (beta-lactone) was removed by washing the cells 3× with 1 mL PBS each. Then the cells were lysed by sonication. ClpP has been identified by mass spectrometry from preparative SDS gels after workup and tryptic digestion. B) In vivo dose down of beta-lactones D3, E2 and G2 with S. aureus indicates strong labeling by beta-lactone D3. C) Increase of selectivity at 8.0 μM concentration.
This example relates to the in vivo labelling of the proteome of S. aureus with β-lactones. The beta-lactones were applied at a certain concentration to approx. 2×10^9 cfu of stationary phase S. aureus in 100 μL PBS and incubated for 2 h. Excess beta-lactone was removed by washing the cells 3× with 1 mL PBS each. Then the cells were lysed by sonication. […] ClpP has been identified by mass spectrometry from preparative SDS gels after workup and tryptic digestion.

[2] = test system: LLO haemolytic activity of L. monocytogenes EGDe; test: LLO haemolytic activity testing of culture supernatants; assay type: cell-based, Listeria monocytogenes EGDe; settings: sheep red blood cells
Procedure: Overnight cultures of L. monocytogenes EGDe were harvested by centrifugation and resuspended in an equal volume of fresh BHB medium. In 1.5 mL Eppendorf tubes, 400 μL of BHB medium were inoculated with 4 μL of the resuspended Listeria culture and 4 μL of a corresponding beta-lactone stock in DMSO. The final concentrations were 800 μM, 400 μM, 200 μM, 100 μM and DMSO as control. The amount of DMSO in all tests was 1% of the medium. After mixing, the test tubes were incubated under continuous shaking at 200 rpm at 37° C. for 16 h. Then, cells were centrifuged and the supernatants filtered sterile by passing them through a 0.2 μm pore size filter. Haemolytic activity of LLO in the culture supernatants was quantitatively investigated according to a method described in J. Food Safety 1998, 18: 197-203 (incorporated herein by reference) with some modifications. In Nunclon™ 96-well plates with round shaped wells 100 μL of serial dilutions of the supernatants in PBS were added per well and incubated with 100 μL of 3% SRBC (sheep red blood cells) resuspended in PBS for 15 min at 37° C. under gentle shaking. The 96-well plates were centrifuged at 600 rpm for 5 min and the minimum dilution at which intact blood cells began to form a pellet was recorded. Controls with no lactone were set 100%. Buffer only controls and pure BHB medium yielded no haemolysis.

## C#CCCCC1OC(=O)C1CCCCCCCC=C (stereo not drawn) [D3, trans-3-(8-nonen-1-yl)-4-(4-pentyn-1-yl)oxetan-2-one]
[1]; FIG. 5 dose down
  potency ranking in haemolysis dose down (E2, G2, D3): most active
[1]; dose down 250-15.6 nmol
  total amount down to which almost no haemolysis is observed: 125 nmol
[1]; total amount of 250 nmol applied on Whatman Cards, 5% sheep blood agar, 37° C. over night
  haemolytic activity of S. aureus: strongly reduce
ClpP; 8.0 μM concentration
  ClpP labelling: still labelled
  off-targets (selectivity): almost no off-targets are visible
ClpP; stationary phase S. aureus, 2 h, dose down of D3, E2, G2
  ClpP labelling in in vivo dose down: strong labelling
[2]; Listeria monocytogenes, Erythrocyte, cultures grown 16 h with lactone, read-out: EC50 of reduction of LLO haemolytic activity
  EC50: 100 µM
[2]; cultures grown 16 h with 100-800 μM lactone
  reduction (inhibition) of haemolytic activity: 80%
